The subject of assay [1] is H4-IIE cells. Put plainly: Glucose production in cultured H4-IIE cells and insulin dependence. It is filed as cell-based, rat. To be noted: 24 h; for Glucose Production, Percent of Control Activity No Insulin: peptide 10 μM alone, relative to untreated cells; for Glucose Production, Percent of Control Activity With Insulin: peptide 10 μM with 800 μM insulin, relative to insulin treated cells. An outline of the steps:
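Rat hepatoma cells incubated 24 h with peptides; glucose released into conditioned medium measured colorimetrically at 570 nm. Untreated cells serve as maximal-production reference, with insulin at […] as a modest inhibitor. Values are means of 2-4 independent experiments run in triplicate.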

Assay [2] deals with C2C12 cells. The assay is described as follows: Caspase 3/7 activity in C2C12 cells. It counts as cell-based, mouse. To be noted: peptide 10 μM, 24 hours, relative to 0.1% DMSO control. As for the experimental part:
The effect of the peptides on cell death/survival can be assessed using a caspase-3/7 assay in cultured cells such as mouse myoblast cells. Peptides were initially prepared as 10 mM stock in DMSO, diluted to 1 mM in H2O, and used at a final concentration of 10 μM (0.1% DMSO). […] Staurosporine (Abcam, Cambridge, Mass.) was dissolved at 10 mM in DMSO as a stock solution. Caspase-Glo 3/7 Assay Reagent was purchased from Promega (Madison, Wis.). C2C12 cell line was purchased from American Type Culture Collection (Manassas, Va.). C2C12 cells were grown in DMEM supplemented with 20% FBS with 100 IU/ml penicillin and 100 μg/ml streptomycin. […] C2C12 cells were seeded at 4,000 cells per well on 96-well plates. […] Caspase 3/7 activity was determined using a Caspase-Glo 3/7 Assay kit according to the manufacturer's instructions. Luminescence for each sample well on the plate was measured using a Cytation 3 plate reader (BioTek, Winooski, Vt.). Activity was calculated relative to 0.1% DMSO control.

Assay [3] deals with C2C12 cells. The assay is described as follows: Cell proliferation in C2C12 cells (Cyquant DNA dye binding). It is filed as cell-based, mouse. To be noted: peptide 10 μM, 72 hours with readdition every 24 hours, relative to 0.1% DMSO control. On the procedure:
The effect of the peptides on cell proliferation was assessed using a DNA dye binding assay in cultured cells such as mouse myoblast cells. Peptides were initially prepared as 10 mM stock in DMSO, diluted to 1 mM in H2O, and added at a final concentration of 10 μM (0.1% DMSO). Lovastatin was used as a growth arrest control at final concentration of 10 μM. […] C2C12 cells were grown in DMEM supplemented with 20% FBS with 100 IU/ml penicillin and 100 μg/ml streptomycin. […] C2C12 cells were seeded at 800 cells per well on 96-well plates. […] Cell proliferation was determined using Cyquant Direct Nucleic Acid Stain (Thermo Fisher Scientific, Waltham, Mass.) according to the manufacturer's instructions. Fluorescence for each sample well on the plate was measured using a Cytation 3 plate reader at Ex/Em=495/535 nm (BioTek, Winooski, Vt.). Activity was calculated relative to 0.1% DMSO untreated control. The relative standard deviation for the lovastatin control was <27%. The cell proliferation for the lovastatin control was <25% of the value for untreated control.

The subject of assay [4] is Male DIO mice. Put plainly: Metabolic parameters in diet induced obese (DIO) mice, Example 16. It counts as in vivo, mouse. To be noted: 5 mg/kg twice daily intraperitoneal, 10 days, N = 8. On the procedure: Male C57BL/6 mice were maintained on a high fat diet for 18 weeks to develop diet induced obesity. Animals were randomized to treatment groups based on blood glucose levels and body weight. The peptides of the invention were administered to groups of male DIO mice twice daily by intraperitoneal injection at a dose of 5 mg/kg/dose for 10 days (N=8 animals per treatment group). An additional group of male DIO mice (n=8) received vehicle (water) alone administered twice daily by intraperitoneal injection. Body weight, blood glucose levels and food intake were monitored. Body mass distribution (fat vs lean) was determined by quantitative whole body NMR prior to dosing and at the end of dosing.

The target of assay [5] is T1, Apelin Receptor (APJ) (Homo sapiens, UniProt P35414).
T1 sequence (P35414 1-380): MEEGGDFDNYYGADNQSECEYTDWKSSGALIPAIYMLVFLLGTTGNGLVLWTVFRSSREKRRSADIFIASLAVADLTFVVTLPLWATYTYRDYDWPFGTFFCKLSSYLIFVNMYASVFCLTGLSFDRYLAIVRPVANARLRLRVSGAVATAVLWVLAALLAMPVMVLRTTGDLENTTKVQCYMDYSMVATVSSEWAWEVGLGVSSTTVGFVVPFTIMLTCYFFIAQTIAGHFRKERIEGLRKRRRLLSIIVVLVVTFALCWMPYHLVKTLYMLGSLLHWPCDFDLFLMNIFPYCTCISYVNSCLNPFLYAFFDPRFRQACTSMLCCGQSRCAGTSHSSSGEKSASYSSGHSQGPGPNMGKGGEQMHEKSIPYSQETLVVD
The assay is described as follows: cAMP levels in CHO-K1 AGTRL1 Gi cells, single concentration (HitHunter). To be noted: peptide 10 μM with 10 μM forskolin, 30 min; 500 nM Pyr-Apelin-13 response = 100%. It counts as cell-based. The arrangement: host or cells: CHO-K1 AGTRL1 Gi cells.
Procedure: The effect of the peptides on activation of Apelin Receptor (APJ) can be assessed using an assay to monitor inhibition of cAMP expression in cultured cells overexpressing APJ such as CHO-K1, derived from Chinese hamster ovary. Peptides were initially prepared as 30 mM stock in DMSO and diluted to 3 mM in H2O or directly as 3 mM stock in H2O; used at a final concentration of 10 μM (0-0.1% DMSO). […] CHO-K1 AGTRL1 Gi cells stably overexpressing APJ were purchased from Eurofins-DiscoverX (Fremont, Calif.). CHO-K1 AGTRL1 Gi cells were seeded onto 384-well plates in standard culture medium (F12K+10% Fetal Bovine Serum+antibiotics) at 10,000 cells/well and allowed to adhere overnight at 37° C. in a humidified atmosphere of 5% CO2/95% air. […] Following 30 min incubation at 37° C., cAMP levels in response to various treatments were quantified using HitHunter cAMP kit according to manufactures protocol (Eurofins-DiscoverX); chemiluminescent signal was measured using a Cytation 3 plate reader (BioTek, Winooski, Vt.).

Assay [6] addresses T1, Apelin Receptor (APJ). The assay is described as follows: β-Arrestin recruitment in CHO-K1 AGTRL1 β-Arrestin cells (PathHunter). It is filed as cell-based. The arrangement: host or cells: CHO-K1 AGTRL1 β-Arrestin cell line. To be noted: peptide 10 μM, 90 min; 500 nM Apelin-13 response = 100%.
Procedure: The effect of the peptides on activation of Apelin Receptor (APJ) can be assessed using an assay to monitor β-Arrestin recruitment in cultured cells overexpressing APJ such as CHO-K1, derived from Chinese hamster ovary. β-Arrestin recruitment assays were performed by Eurofins-DiscoverX (Fremont, Calif.) using CHO-K1 AGTRL1 β-Arrestin cell line (co-expressing ProLink tagged human APJ and Enzyme Acceptor tagged β-Arrestin) and PathHunter detection kit. Peptides were initially prepared either as 10 mM stock in DMSO and used at a final concentration of 10 μM (0.1% DMSO). CHO-K1 AGTRL1 β-Arrestin cells were seed onto 384-well plates in standard medium. […] Following 90 min incubation at 37° C., β-Arrestin recruitment in response to various treatments was quantified using a chemiluminescent complementation reporter assay to measure association of tagged human APJ (ProLink tag) and tagged β-Arrestin (Enzyme Acceptor tag).

Non-standard residues stand in square brackets, D forms with d. No end group written: not given here.

In the case of 14 (RRMMGMVFQCLEG[dA]) [compound 14], in assay [1], the “Glucose Production, Percent of Control Activity No Insulin” value was 104.4% and the “Glucose Production, Percent of Control Activity With Insulin” value is 159.6%. For the same compound, the “Caspase 3/7 Activity, Percent of Control Activity” value (“Caspase 3/7 Activity, Percent” for short) in assay [2] was found to be 100.1%. In addition, in assay [3], the “Cell Proliferation, Percent of Control” value is given as 97.2%.

Take “12 (RRMMGMVEQCLCG[dA]; cysteine pairing not given here) [compound 12]”: in assay [1], the “Glucose Production, Percent of Control Activity No Insulin” value was found to be 96.4% and the “Glucose Production, Percent of Control Activity With Insulin” value was found to be 44.8%. Also, in assay [4], the “Difference from Vehicle Control: Decrease from Baseline in Blood Glucose” value was -6.75 mg/dL, the “Difference from Vehicle Control: Decrease from Baseline in Body Weight” value is on record as −2.89% and the “Difference from Vehicle Control: Decrease from Baseline in Fat Mass” value was -1.73 g. In addition, in assay [2], the “Caspase 3/7 Activity, Percent” value is given as 105.1%. For the same compound, the “Cell Proliferation, Percent of Control” value in assay [3] is listed as 119.3%.

Take “8 (RRMMGMVFQCLCG[dA]; cysteine pairing not given here) [compound 8]”: in assay [1], the “Glucose Production, Percent of Control Activity No Insulin” value came out at 78.9% and the “Glucose Production, Percent of Control Activity With Insulin” value came out at 102.8%. In assay [4], the “Difference from Vehicle Control: Decrease from Baseline in Blood Glucose” value is -16.9 mg/dL, the “Difference from Vehicle Control: Decrease from Baseline in Body Weight” value was −8.01% and the “Difference from Vehicle Control: Decrease from Baseline in Fat Mass” value is -3.88 g. Besides, in assay [2], the “Caspase 3/7 Activity, Percent” value is reported as 97.6%. Also, in assay [3], the “Cell Proliferation, Percent of Control” value is 98.1%.

Consider 11 (RRMMGMVAQCLCGA) [compound 11], for which, in assay [1], the “Glucose Production, Percent of Control Activity No Insulin” value is 96.6% and the “Glucose Production, Percent of Control Activity With Insulin” value worked out at 57.5%. Besides, in assay [4], the “Difference from Vehicle Control: Decrease from Baseline in Blood Glucose” value is -4.91 mg/dL, the “Difference from Vehicle Control: Decrease from Baseline in Body Weight” value was −4.05% and the “Difference from Vehicle Control: Decrease from Baseline in Fat Mass” value is -2.34 g. The “Caspase 3/7 Activity, Percent” value in assay [2] was 99.1%. Further, the “Cell Proliferation, Percent of Control” value in assay [3] is reported as 88.1%.

On to “10 (RRMMGMVYQCLCG[dA]; cysteine pairing not given here) [compound 10]”, for which, in assay [1], the “Glucose Production, Percent of Control Activity No Insulin” value turned out to be 92.2% and the “Glucose Production, Percent of Control Activity With Insulin” value stood at 38.2%. In assay [4], the “Difference from Vehicle Control: Decrease from Baseline in Blood Glucose” value was -8.37 mg/dL, the “Difference from Vehicle Control: Decrease from Baseline in Body Weight” value is recorded as −5.47% and the “Difference from Vehicle Control: Decrease from Baseline in Fat Mass” value was -2.16 g. For the same compound, the “Caspase 3/7 Activity, Percent” value in assay [2] came to 96.6%. The “Cell Proliferation, Percent of Control” value in assay [3] is on record as 101.5%.

Take 16 (RRMMGMVFQCLSG[dA]) [compound 16]: in assay [1], the “Glucose Production, Percent of Control Activity No Insulin” value was determined as 99.8% and the “Glucose Production, Percent of Control Activity With Insulin” value stood at 56.8%. The “Caspase 3/7 Activity, Percent” value in assay [2] was found to be 93.1%. The “Cell Proliferation, Percent of Control” value in assay [3] was found to be 89.6%.

As to 13 (RRMMGMVFQELCG[dA]) [compound 13], in assay [1], the “Glucose Production, Percent of Control Activity No Insulin” value was determined as 100.9% and the “Glucose Production, Percent of Control Activity With Insulin” value came out at 68%. Further, the “Caspase 3/7 Activity, Percent” value in assay [2] stood at 99.0%. Besides, the “Cell Proliferation, Percent of Control” value in assay [3] was 90.0%.

Consider 17 (RRMMGMVFQSLSG[dA]) [compound 17], for which, in assay [1], the “Glucose Production, Percent of Control Activity No Insulin” value stood at 101.7% and the “Glucose Production, Percent of Control Activity With Insulin” value worked out at 95.5%. Further, the “Caspase 3/7 Activity, Percent” value in assay [2] is on record as 92.0%. For the same compound, the “Cell Proliferation, Percent of Control” value in assay [3] is listed as 89.1%.

For “18 (RRXXGXVFQCLCGA; (3)..(3) Xaa is Norleucine; (4)..(4) Xaa is Norleucine; (6)..(6) Xaa is Norleucine; (14)..(14) D-Ala) [compound 18]”, in assay [1], the “Glucose Production, Percent of Control Activity No Insulin” value worked out at 103.1% and the “Glucose Production, Percent of Control Activity With Insulin” value worked out at 140.4%. Moreover, the “Caspase 3/7 Activity, Percent” value in assay [2] was 93.8%. Moreover, in assay [3], the “Cell Proliferation, Percent of Control” value worked out at 74.9%.

With “19 (RRMVFQCLCG[dA]; cysteine pairing not given here) [compound 19]”, in assay [1], the “Glucose Production, Percent of Control Activity No Insulin” value was 100.8% and the “Glucose Production, Percent of Control Activity With Insulin” value was found to be 68.9%. Further, in assay [2], the “Caspase 3/7 Activity, Percent” value is 100.1%. The “Cell Proliferation, Percent of Control” value in assay [3] worked out at 92.3%.

On to `CSCC[C@H](NC(=O)CNC(=O)[C@H](CCSC)NC(=O)[C@H](CCSC)NC(=O)[C@H](CCCNC(=N)N)NC(=O)[C@H](CCCNC(=N)N)NC(=O)[C@@H](N)CCSC)C(=O)N[C@H](C(=O)N[C@@H](Cc1ccccc1)C(=O)N[C@@H](CCC(N)=O)C(=O)N[C@@H](CS)C(=O)N[C@@H](CC(C)C)C(=O)N[C@@H](CS)C(=O)NCC(=O)N[C@@H](CC(C)C)C(=O)O)C(C)C` [compound 7], for which, in assay [1], the “Glucose Production, Percent of Control Activity No Insulin” value is on record as 54.2% and the “Glucose Production, Percent of Control Activity With Insulin” value amounted to 64.2%. In addition, the “cAMP Levels, Percent of Pyr-Apelin-13 Control Activity” value in assay [5] was 109%. In assay [6], the “β-Arrestin Recruitment, Percent of Apelin-13 Control Activity” value came to 91%. In assay [4], the “Difference from Vehicle Control: Decrease from Baseline in Blood Glucose” value was -20.0 mg/dL, the “Difference from Vehicle Control: Decrease from Baseline in Body Weight” value is −3.19% and the “Difference from Vehicle Control: Decrease from Baseline in Fat Mass” value was -0.84 g. Further, the “Caspase 3/7 Activity, Percent” value in assay [2] came to 109.4%. For the same compound, the “Cell Proliferation, Percent of Control” value in assay [3] worked out at 94.0%.

For `CSCC[C@H](NC(=O)CNC(=O)[C@H](CCSC)NC(=O)[C@H](CCSC)NC(=O)[C@H](CCCNC(=N)N)NC(=O)[C@@H](N)CCCNC(=N)N)C(=O)N[C@H](C(=O)N[C@@H](Cc1ccccc1)C(=O)N[C@@H](CCC(N)=O)C(=O)N[C@@H](CO)C(=O)N[C@@H](CC(C)C)C(=O)N[C@@H](CS)C(=O)NCC(=O)N[C@H](C)C(=O)O)C(C)C` [compound 15], in assay [1], the “Glucose Production, Percent of Control Activity No Insulin” value was 101.4% and the “Glucose Production, Percent of Control Activity With Insulin” value was found to be 63.9%. Besides, in assay [5], the “cAMP Levels, Percent of Pyr-Apelin-13 Control Activity” value is 105%. Also, in assay [6], the “β-Arrestin Recruitment, Percent of Apelin-13 Control Activity” value was found to be 40%. The “Caspase 3/7 Activity, Percent” value in assay [2] came out at 101.6%. Further, the “Cell Proliferation, Percent of Control” value in assay [3] was 93.5%.

For the origin of these results see patent US20220324909A1, “THERAPEUTIC PEPTIDES” (COHBAR, INC., priority 2019, published 2022).
